Reference: PMC7076710, “Synthesis, Identification, and Structure–Activity Relationship Analysis of GATA4 and NKX2-5 Protein–Protein Interaction Modulators” (Journal of Medicinal Chemistry, 2019)
One block for each compound: values may come before it.

Target: T1, GATA4–NKX2-5 transcriptional synergy (Mus musculus, UniProt P42582+Q08369)
T1 construct: expressed in transfected cells; host or cells: COS-1
Assay: GATA4–NKX2-5 transcriptional synergy luciferase reporter assay (3xNKE reporter, COS-1 cells)
Format: cell-based

[1] = COS-1, GATA4-NKX2-5 transcriptional synergy luciferase reporter assay, compound at 3 µM
[2] = COS-1, GATA4-NKX2-5 transcriptional synergy luciferase reporter assay, compound at 10 µM
[3] = COS-1, 3 µM, luciferase reporter activity, % of control
[4] = COS-1, 10 µM, luciferase reporter activity, % of control
[5] = COS-1, compound at 3 µM, luciferase reporter activity, % of control
[6] = COS-1, compound at 10 µM, luciferase reporter activity, % of control
[7] = COS-1, compound 3 µM, luciferase reporter activity relative to control
[8] = COS-1, compound 3 µM, luciferase reporter activity, spread in separate STDEV column
[9] = COS-1, compound 10 µM, luciferase reporter activity, spread in separate STDEV column
[10] = COS-1, compound 10 µM, luciferase reporter activity relative to control
[11] = 3 µM compound, GATA4–NKX2-5 transcriptional synergy reporter, COS-1 cells
[12] = 10 µM compound, GATA4–NKX2-5 transcriptional synergy reporter, COS-1 cells

T1 sequence (Q08369 whole entry): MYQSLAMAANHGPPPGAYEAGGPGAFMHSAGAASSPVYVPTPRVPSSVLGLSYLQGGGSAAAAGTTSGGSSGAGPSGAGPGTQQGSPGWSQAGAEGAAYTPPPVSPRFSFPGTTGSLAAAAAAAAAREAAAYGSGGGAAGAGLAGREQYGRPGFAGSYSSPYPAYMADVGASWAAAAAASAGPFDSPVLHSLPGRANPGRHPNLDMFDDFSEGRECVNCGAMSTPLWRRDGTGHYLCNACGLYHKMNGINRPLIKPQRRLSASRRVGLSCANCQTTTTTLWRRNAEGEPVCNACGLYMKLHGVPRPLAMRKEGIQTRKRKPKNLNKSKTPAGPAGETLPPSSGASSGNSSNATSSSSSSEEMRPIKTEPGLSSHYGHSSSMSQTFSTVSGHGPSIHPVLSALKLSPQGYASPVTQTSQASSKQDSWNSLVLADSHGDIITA
T1 sequence (P42582 whole entry): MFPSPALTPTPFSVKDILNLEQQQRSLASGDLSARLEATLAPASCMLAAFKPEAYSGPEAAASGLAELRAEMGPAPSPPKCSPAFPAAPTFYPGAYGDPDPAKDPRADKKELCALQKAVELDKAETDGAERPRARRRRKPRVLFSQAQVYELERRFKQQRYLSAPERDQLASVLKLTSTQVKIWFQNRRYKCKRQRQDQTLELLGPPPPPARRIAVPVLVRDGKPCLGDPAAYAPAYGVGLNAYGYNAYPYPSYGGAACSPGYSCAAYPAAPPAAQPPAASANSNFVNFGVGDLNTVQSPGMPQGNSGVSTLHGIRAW

activity at 3 µM [1]: 85.4%
activity at 10 µM [2]: 88.3%
Structure (SMILES): CCN(CC)c1ccc(NC(=O)c2c(-c3cccc(Br)c3)noc2C)c(C)c1 [SI131]

activity at 3 µM [3]: 110%
activity at 10 µM [4]: 96.2%
Structure (SMILES): COc1ccc(C(=O)Nc2c(-c3ccccc3)noc2C)cc1 [SI32]

activity at 3 µM [5]: 104%
activity at 10 µM [6]: 71.9%
Structure (SMILES): COc1ccc(-c2cc(N)nn2C(=O)c2ccc(C(C)(C)C)cc2)cc1 [SI112]

activity at 3 µM [1]: 108%
activity at 10 µM [2]: 102%
Structure (SMILES): O=C(Nc1ccc(F)c(Cl)c1)c1cnoc1-c1ccco1 [SI124]

activity at 3 µM [7]: 73.2%
Structure (SMILES): CCN(CC)c1ccc(NC(=O)c2c(-c3ccccc3)nnn2CCOC)cc1 [Compound 47k]

activity at 3 µM [8]: 99.6%
activity at 10 µM [9]: 115%
Structure (SMILES): Cc1onc(-c2ccccc2)c1C(=O)Nc1ccc(C(=O)OCCN(C)C)cc1 [Compound 10d]

activity at 3 µM [7]: 96.6%
activity at 10 µM [10]: 87.9%
Structure (SMILES): CCN(CC)c1ccc(C(=O)Cn2nnnc2-c2ccccc2)cc1 [SI69]

activity at 3 µM [3]: 94.9%
activity at 10 µM [4]: 72.7%
Structure (SMILES): Cc1onc(-c2ccccc2)c1NC(=O)Nc1ccc(C(=O)c2ccccc2)cc1 [SI26]

activity at 3 µM [5]: 91.2%
activity at 10 µM [6]: 118%
Structure (SMILES): Cc1onc(-c2ccccc2)c1NC(=O)NC1CCCCC1 [SI25]

activity at 3 µM [11]: 96.2%
activity at 10 µM [12]: 75.2%
Structure (SMILES): Cc1onc(-c2ccccc2Cl)c1C(=O)Nc1ccc2oc(-c3ccccc3)cc(=O)c2c1 [SI51]

activity at 3 µM [3]: 109%
activity at 10 µM [4]: 86.5%
Structure (SMILES): Cc1onc(-c2ccccc2)c1NC(=O)Nc1cccc(C(F)(F)F)c1 [SI24]

activity at 3 µM [5]: 72.7%
Structure (SMILES): CCN(CC)c1ccc(/N=C(\SC)c2c(-c3ccccc3)noc2C)cc1 [Compound 24a]

activity at 3 µM [8]: 86%
activity at 10 µM [9]: 97.9%
Structure (SMILES): CCN(CC)c1ccc(NC(=O)c2c(C)noc2-c2noc(C)c2C)cc1 [SI73]

activity at 3 µM [5]: 87.1%
activity at 10 µM [6]: 89.9%
Structure (SMILES): Cc1onc(-c2ccccc2)c1NCc1ccc(N(C)C)cc1 [SI109]

activity at 3 µM [11]: 98.1%
activity at 10 µM [12]: 82.3%
Structure (SMILES): CCN(CC)c1ccc(NCc2c[nH]nc2-c2ccc(F)cc2)cc1 [SI81]

activity at 3 µM [1]: 94.3%
activity at 10 µM [2]: 115%
Structure (SMILES): CN(C)c1c(F)cc(NC(=O)c2cc(-c3ccco3)on2)cc1F [SI129]

activity at 3 µM [11]: 102%
Structure (SMILES): CCN(CC)c1ccc(NC(=O)c2c[nH]nc2-n2cnnn2)cc1 [Compound 47g, N-[4-(Diethylamino)phenyl]-3-(1H-tetrazol-1-yl)-1H-pyrazole-4-carboxamide]

activity at 3 µM [5]: 80.1%
activity at 10 µM [6]: 98.5%
Structure (SMILES): Cc1onc(-c2ccccc2)c1C(=O)Nc1ccc(C(=O)Nc2ccccc2)cc1 [SI11]

activity at 3 µM [5]: 81.3%
activity at 10 µM [6]: 93.5%
Structure (SMILES): CCN(CC)c1ccc(/N=C/c2onc(-c3ccccc3)c2C(=O)OC)cc1 [Compound 51]

activity at 3 µM [5]: 92.6%
activity at 10 µM [6]: 96%
Structure (SMILES): Cc1onc(-c2ccccc2)c1C(=O)Nc1ccc2c(c1)nc(C)n2C(C)C [SI15]

activity at 3 µM [5]: 88.9%
Structure (SMILES): CCN(CC)c1ccc(NC(=O)c2c(-c3c(Cl)cccc3Cl)noc2C)cc1 [Compound 39e, 3-(2,6-Dichlorophenyl)-N-[4-(diethylamino)phenyl]-5-methylisoxazole-4-carboxamide]

activity at 3 µM [8]: 97.4%
activity at 10 µM [9]: 104%
Structure (SMILES): CCN(CC)c1ccc(NC(=O)c2c(C)noc2-c2cc(CCOc3ccccn3)on2)cc1 [SI74]

activity at 3 µM [7]: 91.3%
activity at 10 µM [10]: 84.8%
Structure (SMILES): CCN(CC)c1ccc(CNCc2c[nH]nc2-c2ccccc2)cc1 [SI84]

activity at 3 µM [7]: 114%
activity at 10 µM [10]: 101%
Structure (SMILES): Cc1onc(-c2ccccc2)c1COc1ccc(C(=O)OCc2ccoc2)cc1 [Compound 35c]

activity at 3 µM [8]: 91%
Structure (SMILES): CCN(CC)c1ccc(NC(=O)c2c(-c3cc(Br)cs3)noc2C)cc1 [Compound 39l]

activity at 3 µM [7]: 92.9%
Structure (SMILES): CCN(CC)c1ccc(N(C)C(=S)c2c(-c3ccccc3)noc2C)cc1 [Compound 26]

activity at 3 µM [5]: 103%
activity at 10 µM [6]: 87.6%
Structure (SMILES): Fc1ccc(-c2n[nH]cc2C=Nc2ccc(N3CCOCC3)cc2)cc1 [SI82]

activity at 3 µM [7]: 94.1%
Structure (SMILES): CCN(CC)c1ccc(/C=N/c2c(-c3ccccc3)noc2C)cc1 [Compound 31, (E)-N-[4-(Diethylamino)benzylidene]-5-methyl-3-phenylisoxazol-4-amine]

activity at 3 µM [5]: 98.5%
Structure (SMILES): CCN(CC)c1ccc(C(=O)Nc2c(-c3ccccc3)noc2C)cc1 [Compound 27]

activity at 3 µM [11]: 123%
activity at 10 µM [12]: 106%
Structure (SMILES): Cc1onc(-c2ccccc2)c1C(=O)Nc1ccc2c(c1)C(=O)CC(C)(C)O2 [SI39]

activity at 3 µM [5]: 87%
activity at 10 µM [6]: 117%
Structure (SMILES): CCN(CCO)c1ccc(N(C)C(=O)c2c(-c3ccccc3)noc2C)cc1 [SI36]

activity at 3 µM [3]: 82.6%
activity at 10 µM [4]: 101%
Structure (SMILES): CCN(CC)c1ccc(/N=N/c2c(C)noc2C)cc1 [SI20]

activity at 3 µM [3]: 97.9%
activity at 10 µM [4]: 79%
Structure (SMILES): CCCCOc1ccc(NC(=O)c2c(-c3ccccc3)noc2C)cn1 [SI7]

activity at 3 µM [11]: 93.1%
Structure (SMILES): CCN(CC)c1ccc(N(Cc2c(-c3ccccc3)noc2C)C(C)=O)cc1 [Compound 16, N-[4-(Diethylamino)phenyl]-N-[(5-methyl-3-phenylisoxazol-4-yl)methyl]acetamide]

activity at 3 µM [1]: 91.8%
activity at 10 µM [2]: 102%
Structure (SMILES): O=C(Nc1ccc2c(c1)OC(F)(F)O2)c1cc(-c2ccco2)on1 [SI122]

activity at 3 µM [11]: 103%
activity at 10 µM [12]: 91.3%
Structure (SMILES): O=C(Nc1ccc2oc(-c3ccccc3)cc(=O)c2c1)c1ncoc1-c1ccccc1 [SI102]
